Activity calls are given as the source filed them.
Experiments:
[1] = target: T1, Short transient receptor potential channel 4 (Mus musculus, UniProt Q9QUQ5); assay: block of DAMGO-driven TRPC4 calcium entry – cell-based, HEK293 TRPC4/mu-opioid, Fluo-4 calcium, dose response (AID 434942); type: functional;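 further: potency of inhibitors blocking the TRPC4 calcium response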
T1 sequence (Q9QUQ5 whole entry): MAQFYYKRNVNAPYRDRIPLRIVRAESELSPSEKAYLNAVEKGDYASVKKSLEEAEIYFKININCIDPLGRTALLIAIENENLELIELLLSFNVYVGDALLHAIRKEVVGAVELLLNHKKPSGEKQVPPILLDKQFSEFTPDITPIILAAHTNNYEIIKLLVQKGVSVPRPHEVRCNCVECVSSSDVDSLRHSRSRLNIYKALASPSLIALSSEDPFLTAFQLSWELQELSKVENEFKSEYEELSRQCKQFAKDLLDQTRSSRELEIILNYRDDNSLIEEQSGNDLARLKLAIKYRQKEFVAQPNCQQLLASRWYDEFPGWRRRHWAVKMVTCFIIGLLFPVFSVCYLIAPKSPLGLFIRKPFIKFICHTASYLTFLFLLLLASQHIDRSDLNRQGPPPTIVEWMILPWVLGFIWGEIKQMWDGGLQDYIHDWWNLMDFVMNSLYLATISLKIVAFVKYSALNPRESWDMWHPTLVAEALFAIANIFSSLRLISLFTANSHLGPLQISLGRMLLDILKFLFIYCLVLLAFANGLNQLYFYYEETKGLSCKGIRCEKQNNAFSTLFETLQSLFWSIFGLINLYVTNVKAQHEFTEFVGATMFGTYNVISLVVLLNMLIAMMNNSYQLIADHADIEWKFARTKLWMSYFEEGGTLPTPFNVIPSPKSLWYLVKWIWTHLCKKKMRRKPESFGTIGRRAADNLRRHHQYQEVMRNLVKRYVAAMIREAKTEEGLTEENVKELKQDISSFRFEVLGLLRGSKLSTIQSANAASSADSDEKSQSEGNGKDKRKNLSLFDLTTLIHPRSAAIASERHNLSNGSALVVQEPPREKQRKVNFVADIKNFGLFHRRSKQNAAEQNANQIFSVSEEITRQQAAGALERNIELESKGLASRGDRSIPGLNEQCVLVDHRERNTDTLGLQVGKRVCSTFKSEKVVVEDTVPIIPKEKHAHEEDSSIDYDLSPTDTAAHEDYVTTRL

[2] = target: T2, Lysosomal acid glucosylceramidase (Homo sapiens, UniProt P04062); assay: Dose response cell-based high throughput screening assay to identify enhancers of beta-glucosidase activity. [Related pubchem assays: 784 ]; type: functional
T2 sequence (P04062 whole entry): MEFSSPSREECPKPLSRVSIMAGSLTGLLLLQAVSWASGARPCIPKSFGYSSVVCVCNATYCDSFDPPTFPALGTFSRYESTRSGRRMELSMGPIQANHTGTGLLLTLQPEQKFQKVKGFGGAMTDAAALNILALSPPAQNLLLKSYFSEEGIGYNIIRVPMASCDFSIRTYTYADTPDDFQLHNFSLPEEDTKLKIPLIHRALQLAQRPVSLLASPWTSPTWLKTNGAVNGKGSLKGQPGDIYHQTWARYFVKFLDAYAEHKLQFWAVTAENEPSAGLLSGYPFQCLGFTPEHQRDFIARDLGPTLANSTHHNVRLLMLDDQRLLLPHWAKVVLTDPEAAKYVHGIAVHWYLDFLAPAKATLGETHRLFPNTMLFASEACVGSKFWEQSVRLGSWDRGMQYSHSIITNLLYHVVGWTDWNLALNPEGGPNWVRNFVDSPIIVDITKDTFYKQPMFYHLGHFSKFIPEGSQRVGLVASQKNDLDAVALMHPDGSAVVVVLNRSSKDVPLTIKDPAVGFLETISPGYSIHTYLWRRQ

[3] = target: T3, Calpain-2 catalytic subunit (Sus scrofa, UniProt P43367); assay: m-calpain protease blockers, concentration series – biochemical, fluorogenic peptide substrate, dose response (AID 1420); type: functional
T3 sequence (P43367 whole entry): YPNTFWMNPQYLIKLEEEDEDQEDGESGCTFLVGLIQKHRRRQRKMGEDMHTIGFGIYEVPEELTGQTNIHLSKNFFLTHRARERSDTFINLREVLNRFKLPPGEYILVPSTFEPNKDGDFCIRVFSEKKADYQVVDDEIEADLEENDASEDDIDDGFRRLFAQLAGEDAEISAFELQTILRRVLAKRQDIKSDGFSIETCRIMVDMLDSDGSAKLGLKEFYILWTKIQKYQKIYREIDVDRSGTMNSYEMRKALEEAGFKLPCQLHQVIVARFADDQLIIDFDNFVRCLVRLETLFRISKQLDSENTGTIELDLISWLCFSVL

Nonstructural protein 1 = Nonstructural protein 1 (Influenza A virus, UniProt Q194T2); type: functional, Influenza A virus (A/California/07/2009(H1N1))
Sequence of Nonstructural protein 1 (Q194T2 whole entry): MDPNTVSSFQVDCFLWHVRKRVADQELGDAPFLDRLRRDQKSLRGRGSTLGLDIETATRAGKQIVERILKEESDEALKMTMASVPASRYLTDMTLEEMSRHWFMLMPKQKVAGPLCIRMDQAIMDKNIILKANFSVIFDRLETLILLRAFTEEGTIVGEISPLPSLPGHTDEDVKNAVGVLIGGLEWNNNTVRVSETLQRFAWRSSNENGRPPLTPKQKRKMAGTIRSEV

[4] = target: T4, Ubiquitin-conjugating enzyme E2 N (Homo sapiens, UniProt P61088); type: functional;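 further: Dose-response confirmation in a TR-FRET assay detecting UBC13-driven polyubiquitin chain formation, inhibition measured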
T4 sequence (P61088 whole entry): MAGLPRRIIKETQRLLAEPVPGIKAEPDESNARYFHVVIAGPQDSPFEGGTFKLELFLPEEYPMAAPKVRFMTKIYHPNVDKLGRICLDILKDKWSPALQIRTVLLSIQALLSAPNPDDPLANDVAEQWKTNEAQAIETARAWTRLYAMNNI

[5] = target: T5, DNA repair protein RAD52 homolog (Homo sapiens, UniProt P43351); type: functional, biochemical
T5 sequence (P43351 whole entry): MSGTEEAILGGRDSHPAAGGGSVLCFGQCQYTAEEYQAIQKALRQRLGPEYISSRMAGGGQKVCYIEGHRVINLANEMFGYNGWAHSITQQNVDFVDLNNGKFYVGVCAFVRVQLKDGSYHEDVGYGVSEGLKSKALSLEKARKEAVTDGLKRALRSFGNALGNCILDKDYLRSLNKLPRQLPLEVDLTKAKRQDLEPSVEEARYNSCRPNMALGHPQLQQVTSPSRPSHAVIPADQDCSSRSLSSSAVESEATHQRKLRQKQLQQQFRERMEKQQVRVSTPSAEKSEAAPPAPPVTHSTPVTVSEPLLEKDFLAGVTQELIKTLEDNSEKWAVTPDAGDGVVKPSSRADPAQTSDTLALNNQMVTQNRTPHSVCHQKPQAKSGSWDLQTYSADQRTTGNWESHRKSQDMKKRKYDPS

Vero [6] = assay: cells; type: functional, cell-based; conditions: Chlorocebus sabaeus
Vero [7] = assay: cells; type: functional; conditions: Chlorocebus sabaeus
[8] = viability of uninfected HEp-2 cells – cell-based, HTS, cytotoxicity control for RSV inhibitor project, dose response (AID 2410); type: functional; conditions: human respiratory syncytial virus
[9] = target: Peroxisome proliferator-activated receptor gamma/Nuclear receptor coactivator 1 (Homo sapiens, UniProt P37231); assay: TR-FRET dose response biochemical High Throughput Screening assay for agonists of the steroid receptor coactivator 1 (SRC-1) recruitment by the peroxisome proliferator-activated receptor gamma (PPAR gamma): non-selective agonists. [Related pubchem assays (depositor defined):AID1300, AID1808, AID504735, AID631]; type: protein assay
Sequence of Peroxisome proliferator-activated receptor gamma/Nuclear receptor coactivator 1 (P37231 whole entry): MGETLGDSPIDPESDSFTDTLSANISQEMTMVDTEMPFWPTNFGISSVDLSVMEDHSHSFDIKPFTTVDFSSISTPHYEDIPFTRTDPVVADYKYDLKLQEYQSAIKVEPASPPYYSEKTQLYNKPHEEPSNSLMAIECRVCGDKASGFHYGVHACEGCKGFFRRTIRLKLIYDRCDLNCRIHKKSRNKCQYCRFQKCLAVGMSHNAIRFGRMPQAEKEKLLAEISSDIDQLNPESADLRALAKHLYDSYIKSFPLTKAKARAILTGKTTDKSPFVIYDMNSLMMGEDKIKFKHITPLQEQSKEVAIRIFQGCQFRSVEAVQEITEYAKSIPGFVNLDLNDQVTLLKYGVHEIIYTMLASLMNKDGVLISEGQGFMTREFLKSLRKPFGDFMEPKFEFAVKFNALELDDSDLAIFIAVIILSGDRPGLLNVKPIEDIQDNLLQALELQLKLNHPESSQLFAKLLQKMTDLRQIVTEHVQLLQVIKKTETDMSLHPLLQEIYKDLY
Sequence of Peroxisome proliferator-activated receptor gamma/Nuclear receptor coactivator 1 (Q15788 whole entry, further chain): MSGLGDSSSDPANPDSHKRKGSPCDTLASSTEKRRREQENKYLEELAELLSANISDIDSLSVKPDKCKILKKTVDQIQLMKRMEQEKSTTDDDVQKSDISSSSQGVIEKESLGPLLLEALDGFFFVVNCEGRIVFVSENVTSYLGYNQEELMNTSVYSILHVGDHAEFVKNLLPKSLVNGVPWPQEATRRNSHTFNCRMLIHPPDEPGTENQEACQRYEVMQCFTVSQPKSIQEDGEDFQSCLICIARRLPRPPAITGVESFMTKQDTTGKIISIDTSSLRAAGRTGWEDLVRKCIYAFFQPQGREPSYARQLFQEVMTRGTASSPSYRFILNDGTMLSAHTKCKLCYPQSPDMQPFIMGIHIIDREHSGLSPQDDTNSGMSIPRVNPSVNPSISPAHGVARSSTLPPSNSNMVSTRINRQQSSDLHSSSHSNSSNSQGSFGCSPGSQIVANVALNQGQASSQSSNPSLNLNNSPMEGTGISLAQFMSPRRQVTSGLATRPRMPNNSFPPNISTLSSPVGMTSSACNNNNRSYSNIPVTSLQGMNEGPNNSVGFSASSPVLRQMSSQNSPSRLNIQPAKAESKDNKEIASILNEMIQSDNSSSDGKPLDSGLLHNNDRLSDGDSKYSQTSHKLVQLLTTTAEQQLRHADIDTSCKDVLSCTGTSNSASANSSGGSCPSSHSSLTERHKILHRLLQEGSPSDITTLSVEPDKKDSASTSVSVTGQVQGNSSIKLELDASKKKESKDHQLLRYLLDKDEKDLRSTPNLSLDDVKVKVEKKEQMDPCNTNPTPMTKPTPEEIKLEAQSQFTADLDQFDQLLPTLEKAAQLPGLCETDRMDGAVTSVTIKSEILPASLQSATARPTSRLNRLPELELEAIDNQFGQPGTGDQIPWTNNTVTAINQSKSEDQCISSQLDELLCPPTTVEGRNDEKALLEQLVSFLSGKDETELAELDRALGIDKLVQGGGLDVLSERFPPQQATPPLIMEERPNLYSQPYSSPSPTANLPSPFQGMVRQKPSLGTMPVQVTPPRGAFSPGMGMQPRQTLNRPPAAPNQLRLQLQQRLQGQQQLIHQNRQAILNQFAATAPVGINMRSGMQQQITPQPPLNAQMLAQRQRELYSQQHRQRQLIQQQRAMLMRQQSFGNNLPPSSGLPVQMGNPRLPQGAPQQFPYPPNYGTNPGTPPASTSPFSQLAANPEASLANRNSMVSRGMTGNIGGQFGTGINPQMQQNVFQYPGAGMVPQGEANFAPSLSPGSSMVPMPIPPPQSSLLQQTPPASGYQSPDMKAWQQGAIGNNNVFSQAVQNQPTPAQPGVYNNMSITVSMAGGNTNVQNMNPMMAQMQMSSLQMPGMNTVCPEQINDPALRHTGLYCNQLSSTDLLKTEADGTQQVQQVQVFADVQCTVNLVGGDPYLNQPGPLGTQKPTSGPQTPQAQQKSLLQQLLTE

[10] = target: Peroxisome proliferator-activated receptor gamma/Nuclear receptor coactivator 3 (Homo sapiens, UniProt P37231); assay: TR-FRET dose response biochemical High Throughput Screening assay for agonists of the steroid receptor coactivator 3 (SRC-3) recruitment by the peroxisome proliferator-activated receptor gamma (PPAR gamma): non-selective agonists. [Related pubchem assays: 1301 (Confirmation screen.), 1048 (Primary screen.)]; type: functional
[11] = target: Peroxisome proliferator-activated receptor gamma/Nuclear receptor coactivator 2 (Homo sapiens, UniProt P37231); assay: TR-FRET dose response biochemical High Throughput Screening assay for agonists of the steroid receptor coactivator 2 (SRC-2) recruitment by the peroxisome proliferator-activated receptor gamma (PPAR gamma): non-selective agonists. [Related pubchem assays: 1297, 1032 ]; type: functional
Sequence of Peroxisome proliferator-activated receptor gamma/Nuclear receptor coactivator 2 (P37231 whole entry): as the sequence (P37231 whole entry) above
Sequence of Peroxisome proliferator-activated receptor gamma/Nuclear receptor coactivator 2 (Q15596 whole entry, further chain): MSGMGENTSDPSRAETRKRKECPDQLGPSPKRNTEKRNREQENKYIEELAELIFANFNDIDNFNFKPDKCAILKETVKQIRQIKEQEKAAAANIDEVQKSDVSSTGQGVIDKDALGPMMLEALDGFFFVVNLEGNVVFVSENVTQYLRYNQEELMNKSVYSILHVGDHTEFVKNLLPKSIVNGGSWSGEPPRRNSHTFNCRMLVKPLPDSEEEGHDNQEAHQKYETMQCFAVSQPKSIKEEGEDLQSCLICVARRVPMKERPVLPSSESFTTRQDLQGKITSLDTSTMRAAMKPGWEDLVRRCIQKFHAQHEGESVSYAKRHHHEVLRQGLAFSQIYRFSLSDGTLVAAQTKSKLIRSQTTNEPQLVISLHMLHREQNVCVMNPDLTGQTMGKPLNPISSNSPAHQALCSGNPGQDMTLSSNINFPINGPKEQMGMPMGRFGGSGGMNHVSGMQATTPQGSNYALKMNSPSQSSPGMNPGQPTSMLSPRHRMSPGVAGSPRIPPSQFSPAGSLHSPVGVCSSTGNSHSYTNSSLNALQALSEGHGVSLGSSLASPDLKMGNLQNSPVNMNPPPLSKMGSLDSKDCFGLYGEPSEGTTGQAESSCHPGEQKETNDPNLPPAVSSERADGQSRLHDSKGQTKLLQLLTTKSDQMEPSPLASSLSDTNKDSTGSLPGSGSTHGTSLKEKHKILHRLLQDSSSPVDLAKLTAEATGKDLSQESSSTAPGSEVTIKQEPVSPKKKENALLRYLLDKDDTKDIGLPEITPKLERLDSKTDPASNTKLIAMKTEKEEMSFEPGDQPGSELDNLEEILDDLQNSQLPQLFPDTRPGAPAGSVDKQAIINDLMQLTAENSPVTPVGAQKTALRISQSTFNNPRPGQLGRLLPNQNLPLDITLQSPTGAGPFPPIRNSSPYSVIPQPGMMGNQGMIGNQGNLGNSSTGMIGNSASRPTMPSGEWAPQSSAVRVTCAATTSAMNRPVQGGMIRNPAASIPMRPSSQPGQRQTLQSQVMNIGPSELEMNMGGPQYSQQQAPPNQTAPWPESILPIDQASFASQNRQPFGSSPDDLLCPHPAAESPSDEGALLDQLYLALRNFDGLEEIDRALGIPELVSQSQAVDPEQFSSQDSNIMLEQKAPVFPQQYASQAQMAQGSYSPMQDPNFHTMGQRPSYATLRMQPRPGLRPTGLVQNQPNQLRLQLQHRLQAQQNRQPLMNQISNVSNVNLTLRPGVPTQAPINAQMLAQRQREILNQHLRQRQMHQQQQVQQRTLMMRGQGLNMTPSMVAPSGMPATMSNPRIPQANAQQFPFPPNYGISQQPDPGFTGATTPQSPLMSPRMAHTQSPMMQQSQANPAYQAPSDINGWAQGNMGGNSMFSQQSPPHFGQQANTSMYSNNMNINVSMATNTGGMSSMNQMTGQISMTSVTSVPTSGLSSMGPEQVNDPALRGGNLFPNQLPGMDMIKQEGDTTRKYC

Cytochrome P450 3A4 = Cytochrome P450 3A4 (Homo sapiens, UniProt P08684); conditions: Potency;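 further: confirmatory qHTS run detecting inhibitors and substrates of CYP3A4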
Sequence of Cytochrome P450 3A4 (P08684 whole entry): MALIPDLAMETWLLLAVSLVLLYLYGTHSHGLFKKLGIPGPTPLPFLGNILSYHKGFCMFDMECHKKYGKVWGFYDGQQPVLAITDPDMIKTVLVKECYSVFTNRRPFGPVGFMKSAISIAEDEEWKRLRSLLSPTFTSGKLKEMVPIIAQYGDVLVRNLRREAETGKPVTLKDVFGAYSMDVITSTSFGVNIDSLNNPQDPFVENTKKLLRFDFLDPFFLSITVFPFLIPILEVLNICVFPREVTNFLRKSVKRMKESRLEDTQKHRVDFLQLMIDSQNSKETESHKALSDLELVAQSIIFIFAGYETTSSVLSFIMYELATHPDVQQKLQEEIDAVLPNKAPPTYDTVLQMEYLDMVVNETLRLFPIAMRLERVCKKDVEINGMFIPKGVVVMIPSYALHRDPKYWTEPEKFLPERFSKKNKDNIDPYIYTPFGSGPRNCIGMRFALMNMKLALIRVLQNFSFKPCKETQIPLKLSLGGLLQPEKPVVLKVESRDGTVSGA

[12] = HEK-293T viability loss after treatment – luminescence, T-cell screen hits, cytotoxicity control for TCR NF-kB inhibitor project, dose response (AID 489026); type: functional, cell-based;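 further: cells exposed to compound about 14 hours before the viability readout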
Cytochrome P450 2C19 = Cytochrome P450 2C19 (Homo sapiens, UniProt P33261); assay: Cytochrome panel assay with activity outcomes. Panel member name: p450-cyp2c19 Compounds with AC50 equal or less than 10 uM are considered active; type: functional
SUMO-activating enzyme = SUMO-activating enzyme (Homo sapiens, UniProt Q9UBT2); assay: blockers of SAE1/SAE2–UBC9 SUMO transfer – biochemical, HTRF, uHTS, primary screen (AID 2006); type: protein-complex assay
Trypsin = Trypsin (Sus scrofa, UniProt P00761); assay: trypsin protease activity blockade – biochemical, quenched peptide fluorescence, cherry-pick, selectivity assay for Rce1 protease inhibitor project, dose response (AID 488789)
Sequence of Trypsin (P00761 whole entry): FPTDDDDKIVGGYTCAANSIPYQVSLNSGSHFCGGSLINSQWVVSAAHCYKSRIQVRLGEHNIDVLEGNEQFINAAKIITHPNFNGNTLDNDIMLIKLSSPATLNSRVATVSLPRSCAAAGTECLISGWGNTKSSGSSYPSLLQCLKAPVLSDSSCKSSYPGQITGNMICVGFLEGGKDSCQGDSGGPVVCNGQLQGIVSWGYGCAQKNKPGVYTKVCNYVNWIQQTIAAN

[13] = target: T6, Heat shock factor protein 1 (Mus musculus, UniProt P38532); assay: decrease of HSF1-responsive luciferase luminescence – cell-based, NIH3T3, dose retest, confirmation (AID 2382); type: functional;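 further: NIH3T3 fibroblasts with HSF1-driven luciferase reporter stressed by proteasome inhibitor MG132; luminescence from HSF1-driven luciferase expression after 8 hours of MG132 stress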
T6 sequence (P38532 whole entry): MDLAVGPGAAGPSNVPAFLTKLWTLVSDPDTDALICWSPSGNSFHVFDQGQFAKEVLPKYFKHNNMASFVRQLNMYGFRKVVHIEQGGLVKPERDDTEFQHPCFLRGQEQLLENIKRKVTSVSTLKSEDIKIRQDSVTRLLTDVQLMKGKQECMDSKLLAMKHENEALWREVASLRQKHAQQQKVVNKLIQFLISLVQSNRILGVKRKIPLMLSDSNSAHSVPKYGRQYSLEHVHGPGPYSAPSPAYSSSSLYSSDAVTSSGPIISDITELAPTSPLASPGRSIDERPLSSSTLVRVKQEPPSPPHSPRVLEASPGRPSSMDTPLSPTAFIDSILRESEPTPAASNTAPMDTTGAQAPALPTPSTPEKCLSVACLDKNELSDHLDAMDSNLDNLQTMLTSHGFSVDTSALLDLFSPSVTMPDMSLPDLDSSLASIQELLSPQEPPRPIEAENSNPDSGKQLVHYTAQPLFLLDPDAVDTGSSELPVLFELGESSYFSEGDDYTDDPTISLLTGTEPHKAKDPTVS

## Cc1n[nH]c(C)c1CCCCOc1ccccc1
[1]
  EC50: 3.76 µM (active)

## Nc1nonc1-c1noc(CCCCCN2C(=O)c3ccccc3C2=O)n1
[2]
  EC50: > 10 µM (not active)
[3]
  IC50: 2.74 µM (not active)

## CN1CCN(C2CCN(Cc3ccc(O)c4ncccc34)CC2)CC1
Nonstructural protein 1
  IC50: 5.84 µM (active)
[4]
  IC50: > 20 µM (inactive)
[5]
  AC50: 1.11 µM (active)

## CCCc1c(NC(=O)Nc2ccc(F)cc2)cnn1-c1ccccc1
Vero [6]
  IC50: 2.12 µM (active)
Vero [7]
  CC50: > 25 µM (active)
[8]
  CC50: 21.3 µM (active)
cells
  IC50: 4.51 µM (active)

## CCOCc1cn(CC(=O)c2ccc(Cl)cc2)c(C)nc1=N
[1]
  EC50: 2.99 µM (active)

## O=C(Oc1ccccc1)Oc1ccc2c(c1)oc(=O)c1ccccc12
[9]
  EC50: > 79.4 µM (inactive)
[10]
  EC50: > 79.4 µM (not active)
[11]
  EC50: 64.1 µM (not active)

## COCCCn1c(SCC(=O)OC2CCCCC2)nnc1-c1ccco1
[2]
  EC50: > 50 µM (not active)

## Cn1c(NCc2ccccc2O)nc2ccccc21
[1]
  EC50: 7.5 µM (active)

## NS(=O)(=O)c1ccc(-c2ccc(/C=C3\C(=O)Nc4cc(Cl)ccc43)o2)cc1
[9]
  EC50: 19.7 µM (inactive)
[10]
  EC50: > 26.5 µM (not active)
[11]
  EC50: 9.96 µM (active)

## FC(F)(F)c1ccc(C2[C@H]3CN(Cc4ccc(-c5ccccc5)cc4)[C@H](c4ccccc4)C34CC2(c2ccccc2)C4)cc1 (stereo partly drawn)
Cytochrome P450 3A4
  AC50: 25.1 µM (inconclusive)

## CCOCCCNC(=O)c1cc2c(=O)n3cccc(C)c3nc2n1C
[12]
  IC50: > 80 µM (inactive)

## Cc1nonc1NC(=O)OCCN1CCOC1=O
[2]
  EC50: > 50 µM (not active)
Cytochrome P450 2C19
  AC50: inconclusive

## OC(COCC1CC=CCC1)Cn1cnc2ccccc21 (stereo not drawn)
[2]
  EC50: > 50 µM (not active)

## Cc1ccc2[nH]c3c(c2c1)CN(C(=O)CN1CCCc2ccccc21)CC3
SUMO-activating enzyme
  IC50: 69.6 µM (active)

## Cc1ccc(-c2csc(N3CCN(c4cc5c(cc4Cl)nc(C)n5CCN4CCCCC4)CC3)n2)cc1
[4]
  IC50: > 20 µM (inactive)

## O=C1C(Cc2c[nH]c3ccccc23)NC(=S)N1Cc1ccccc1 (stereo not drawn)
Trypsin
  AC50: 14.3 µM (active)

## COC(=O)N1C2(C=CC1(C)C(=O)NCc1ccc(N(C)C)cc1)CCCCC2 (stereo not drawn)
Cytochrome P450 3A4
  AC50: 0.501 µM (inconclusive)

## O=C(NCCCN1CCCCC1)C1CCN(c2ncnc3c2nc2n3CCCCC2)CC1
[4]
  IC50: > 20 µM (inactive)

## COC(=O)C1=C(C)N(Cc2ccccc2)[C@]23O[C@](C(=O)OC)(C(=O)N2C1c1ccccc1)C(C(=O)OC)=C3C(=O)OC (stereo partly drawn)
Cytochrome P450 3A4
  AC50: 3.16 µM (inconclusive)

## Nc1c2c(nc3ccccc13)N(c1ccccc1)CC2
[13]
  EC50: > 195 µM (not active)
[1]
  EC50: 1.88 µM (active)

## CCc1ccc(-c2cc(C(=O)N/N=C/c3ccccn3)[nH]n2)cc1
[4]
  IC50: > 20 µM (inactive)

Reference: ChEMBL document CHEMBL1201862, “PubChem BioAssay data set” (2004)
